Laboratory results published in ChEMBL document CHEMBL1132917, “Discovery of a potent, non-triketone type inhibitor of 4-hydroxyphenylpyruvate dioxygenase” (Bioorg Med Chem Lett, 2000).

Biological target: 4-hydroxyphenylpyruvate dioxygenase (Sus scrofa, UniProt Q02110)
Assay: In vitro inhibitory activity against HPPD(4-hydroxyphenylpyruvate Dioxygenase) from pig liver using enol borate assay method

Sequence of 4-hydroxyphenylpyruvate dioxygenase (Q02110 whole entry): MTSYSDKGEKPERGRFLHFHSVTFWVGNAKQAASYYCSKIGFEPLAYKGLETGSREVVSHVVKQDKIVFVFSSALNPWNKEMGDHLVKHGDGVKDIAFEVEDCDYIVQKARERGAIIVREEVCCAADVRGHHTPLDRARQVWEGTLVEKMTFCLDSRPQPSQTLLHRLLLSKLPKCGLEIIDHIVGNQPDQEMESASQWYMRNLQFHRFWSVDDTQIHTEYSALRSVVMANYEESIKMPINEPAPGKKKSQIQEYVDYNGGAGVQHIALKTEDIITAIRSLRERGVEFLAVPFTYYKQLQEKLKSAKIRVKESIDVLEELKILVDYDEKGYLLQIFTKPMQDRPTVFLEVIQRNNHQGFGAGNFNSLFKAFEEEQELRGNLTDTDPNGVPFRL

SMILES	IC50 [µM]
O=C1C=C(OC(=O)C2CC2)CCC1	0.03
CC(=O)OC1=CC(=O)CCC1	3.62
CC(C)C(=O)OC1=CC(=O)CCC1	4.16
